Assays:
Cyclooxygenase-2 (COX-2) = experiment: Inhibition of COX-2 biosynthesis induced by LPS (western blotting); type: cell-based; details: human fibroblasts, 24 hours
Experimental: Human fibroblasts (CAS-C-004-5C, Invitrogen, CA, USA) were used to evaluate the coumestrol's effect of inhibiting COX-2 biosynthesis. The cells were seeded onto a 6-well plate at a density of 5×10^4 cells per well and cultured for about 24 hours in a medium containing 10% FBS until ˜80% confluency. The cells were treated with coumestrol diluted to a final concentration of 0.01, 0.1 or 1 μM in a fresh FBS-free medium and then cultured for 24 hours at 37° C. in a 5% (v/v) CO2 incubator. The cells were harvested and the produced COX-2 was quantitated by western blotting.

[1] = test system: ATP production in human fibroblasts; experiment: ATP production in cells (ATP determination kit); type: cell-based; details: 2.5 μM; human fibroblasts treated as in Test Example 4; untreated control 803
Experimental: (§1) Human fibroblasts (CAS-C-004-5C, Invitrogen, CA, USA) were used to evaluate the coumestrol's effect of inhibiting glycation of skin cells. The cells were seeded onto a 6-well plate at a density of 5×10^4 cells per well and cultured for about 24 hours in a medium containing 10% FBS until ˜about 80% confluency. After washing once with PBS and adding 100 μL of PBS, the cells were irradiated with UVB of 50 mJ/cm^2. After removing the PBS, the cells were treated with coumestrol diluted to a final concentration of 2.5 μM in a fresh FBS-free medium. Glycation of skin cells was evaluated using the Oxiselect™ advanced glycation end product (AGE) ELISA kit 24 hours after the treatment with the test substance.
Following treatment of human fibroblasts (CAS-C-004-5C, Invitrogen, CA, USA) as in Test Example 4, ATP production in the cells was evaluated using an ATP determination kit (Invitrogen, A22066).

[2] = test system: Mouse melanocytes (MeI-Ab cells); experiment: Inhibition of melanin production; type: cell-based; details: Melanocyte, read-out: Melanin production inhibiting effect (%)
[3] = test system: transepidermal water loss; experiment: Skin moisturization: transepidermal water loss; type: in vivo, human; details: ointment containing 0.1% coumestrol, 24° C., RH 40%
Text: They were asked to apply the ointment for 12 weeks, twice a day, at the sites of atopic symptoms. 12 weeks later, the improvement of the atopic symptoms was examined using a questionnaire. Improvement of typical symptoms of atopic dermatitis including “itchiness”, “dryness”, “keratinization”, “dandruff”, “erythema”, “swelling”, “skin fissure” and “ooze and eczema” was examined. The subjects were asked to score the improvement of the symptoms and the result was averaged to evaluate the improvement of atopic dermatitis. In order to evaluate the improvement of skin moisturizing ability, transepidermal water loss was measured for the subjects of Test Example 9 under constant-temperature, constant-humidity conditions (24° C., RH 40%) using a […].

[4] = test system: prostaglandin E2 production in human fibroblasts; experiment: Inhibition of prostaglandin E2 (PGE2) production; type: cell-based; details: Fibroblast, A23187 and arachidonic acid stimulation, relative to coumestrol-untreated group, average of 5, read-out: Prostaglandin E2 production inhibiting effect (%)
Experimental: The coumestrol's effect of inhibiting prostaglandin E2 production was tested as follows. Human fibroblasts (CAS-C-004-5C, Invitrogen, CA, USA) were cultured for 24 hours in a CO2 incubator. After replacing the medium with a fresh FBS-free medium and culturing for 2 hours, the cells were treated with coumestrol diluted to a final concentration of 0.01, 0.1 or 1 μM in a fresh FBS-free medium. The cells were then cultured for 2 hours at 37° C. in a 5% (v/v) CO2 incubator. Subsequently, after treating with 50 μM Calcium Ionophore A23187 and arachidonic acid for 5 minutes to stimulate prostaglandin E2, the cells were lysed and prostaglandin E2 was quantitated by measuring absorbance at 450 nm using an ELISA reader. The inhibiting effect (%) was calculated relative to the coumestrol-untreated group. Measurement was made 5 times and the result was averaged.

atopic symptoms = experiment: Improvement of atopic dermatitis (questionnaire, 12 weeks of ointment); type: in vivo, human; details: ointment containing 0.1% coumestrol, twice a day, people with atopic symptoms
Text: They were asked to apply the ointment for 12 weeks, twice a day, at the sites of atopic symptoms. 12 weeks later, the improvement of the atopic symptoms was examined using a questionnaire. Improvement of typical symptoms of atopic dermatitis including “itchiness”, “dryness”, “keratinization”, “dandruff”, “erythema”, “swelling”, “skin fissure” and “ooze and eczema” was examined. The subjects were asked to score the improvement of the symptoms and the result was averaged to evaluate the improvement of atopic dermatitis.

type I pN collagen = experiment: Type I pN collagen synthesis (PIP EIA kit); type: cell-based; details: human fibroblasts, 48 hours, untreated control 100
Experimental: Human fibroblasts (CAS-C-004-5C, Invitrogen, CA, USA) were used to evaluate the coumestrol's effect on type I pN collagen synthesis. The cells were seeded onto a 24-well plate at a density of 1×10^4 cells per well and cultured for about 24 hours in a medium containing 10% FBS until ˜about 80% confluency. The cells were treated with coumestrol diluted to a final concentration of 0.01, 0.1 or 1 μM in a fresh FBS-free medium. The synthesized quantity of type I pN collagen was measured using a procollagen type I C-peptide (PIP) EIA kit (MK101; Takara Shuzo, Kyoto, Japan) by collecting a supernatant from the cell culture 48 hours after the treatment with the test substance. The quantity of type I pN collagen was determined from the total protein quantity.

[5] = test system: UVB-induced reactive oxygen species (ROS) in keratinocytes; experiment: Scavenging of UVB-induced reactive oxygen species (DCFH-DA fluorescence); type: cell-based; details: UVB 30 mJ/cm^2, relative to UV-treated control
Text: 2′,7′-Dichlorodihydrofluorescein diacetate (DCFH-DA; Molecular Probes, Inc., OR, USA) was used to evaluate the coumestrol's effect of scavenging UVB-induced ROS. DCFH-DA is an fat-soluble substance well known as a detector of ROS in cells. It is easily absorbed by cells and turned into water-soluble 2′,7′-dichlorodihydrofluorescein as a result of hydrolysis of the acetate group by esterase in the cells. Since it is turned to 2′,7′-dichlorofluorescein (DCF) which emits fluorescence after reaction with intracellular oxidizing agents, the quantity of intracellular ROS can be evaluated by measuring the intensity of fluorescence from cells treated with DCFH-DA.
Keratinocytes (acquired from Dr. Fusenig at German Cancer Research Center) were seeded onto a 96-well black plate (Greiner BioOne Inc., NC, USA) for fluorescence measurement at a density of 1×10^4 cells per well and cultured for 24 hours. Then, the cells were treated with coumestrol diluted in fresh FBS-free medium to a final concentration of 0.01, 0.1 or 1 μM. After addition of the test substance, the cells were cultured for 24 hours. After removing the remaining medium by washing with HEPES-buffered control salt solution (HCSS), 20 μM DCFH-DA in 100 μL of HCSS was added. […] Then, after adding 100 μL of HCSS, the cells were irradiated with UVB of 30 mJ/cm^2 to induce production of ROS. […] The fluorescence intensity of DCF was measured with the Wallac VICTOR2 fluorometer (Wallac, Turku, Finland) at excitation wavelength of 485 nm and emission wavelength of 530 nm. ROS scavenging effect (%) relative to the control group was calculated from the measured fluorescence intensity.

[6] = test system: advanced glycation end product (AGE) in human fibroblasts; experiment: Inhibition of glycation of skin cells (AGE ELISA); type: cell-based; details: 2.5 μM, UVB 50 mJ/cm^2, 24 hours, untreated control 0.156
Experimental: as §1

MMP-1 = experiment: Inhibition of UV-induced MMP-1 expression (ELISA); type: cell-based; details: Fibroblast, light or radiation study, human fibroblasts, UVB 15 mJ/cm^2, 48 hours, untreated control 100, UV-treated control 132, read-out: MMP1 activity (%)
Experimental: Human fibroblasts (CAS-C-004-5C, Invitrogen, CA, USA) were used to evaluate the coumestrol's effect of inhibiting UV-induced MMP-1 expression. The cells were seeded onto a 24-well plate at a density of 1×10^4 cells per well and cultured for about 24 hours in a medium containing 10% FBS until ˜about 80% confluency. After replacing the medium with an FBS-free medium, the cells were cultured for 24 hours. After washing once with PBS and adding 100 μL of PBS, the cells were irradiated with UVB of 15 mJ/cm^2. After removing the PBS, the cells were treated with coumestrol diluted to a final concentration of 0.01, 0.1 or 1 μM in a fresh FBS-free medium. Expression of MMP-1 was evaluated 48 hours after the treatment with the test substance. The expression of MMP-1 was evaluated using an enzyme-linked immunosorbent assay (ELISA) kit (RPN 2610; Biotrak Amersham Pharmacia Biotech, UK) after collecting a supernatant from the cell culture. The quantity of MMP-1 was determined from the total protein quantity.

O=c1oc2cc(O)ccc2c2oc3cc(O)ccc3c12 [Coumestrol, 3,9-dihydroxy-6H-benzofuro(3,2-c)(1)benzopyran-6-one] was tested, and the “COX-2 expression level (% relative to control)” value (Cyclooxygenase-2 (COX-2); 0.01 μM) was 89 % relative to control, the “COX-2 expression level (% relative to control)” value (Cyclooxygenase-2 (COX-2); 0.1 μM) was 81 % relative to control and the “COX-2 expression level (% relative to control)” value (Cyclooxygenase-2 (COX-2); 1 μM) was 64 % relative to control. For the same compound, the “Concentration of ATP” value [1] was 917 nM, the inhibition at 0.01 µM [2] was 1.2% and the inhibition at 0.1 µM [2] was 24.4%. For the same compound, the inhibition at 1 µM [2] was 30.1%, the “Transepidermal water loss (%)” value ([3]; 1 week later, control 34) was 30% and the “Transepidermal water loss (%)” value ([3]; 4 weeks later, control 39) was 32%. The “Transepidermal water loss (%)” value ([3]; 8 weeks later, control 41) was 26%, the “Transepidermal water loss (%)” value ([3]; 12 weeks later, control 36) was 15% and the inhibition at 0.01 µM ([4]; 0.01 μM) was 12.8%. For the same compound, the inhibition at 0.1 µM ([4]; 0.1 μM) was 24.8%, the inhibition at 1 µM ([4]; 1 μM) was 38.2% and the “Number of subjects Aggravated” value (atopic symptoms) was 0. The “Number of subjects Improved” value (atopic symptoms) was 8, the “Number of subjects Not changed” value (atopic symptoms) was 2 and the “Number of subjects Remarkably improved” value (atopic symptoms) was 5. For the same compound, the “Synthesis of type I pN collagen (%)” value (type I pN collagen; 0.01 μM) was 115%, the “Synthesis of type I pN collagen (%)” value (type I pN collagen; 0.1 μM) was 126% and the “Synthesis of type I pN collagen (%)” value (type I pN collagen; 1 μM) was 129%. The “ROS scavenging effect (%)” value ([5]; 0.01 μM) was 18.7%, the “ROS scavenging effect (%)” value ([5]; 0.1 μM) was 25.6% and the “ROS scavenging effect (%)” value ([5]; 1 μM) was 55.1%. For the same compound, the “Concentration of glycation end product” value [6] was 0.077 µg/mL, the activity at 0.01 µM (MMP-1; 0.01 μM) was 115% and the activity at 0.1 µM (MMP-1; 0.1 μM) was 102%. For the same compound, the activity at 1 µM (MMP-1; 1 μM) was 98%.

Oc1ccc(O)cc1 [Hydroquinone, hydroquinone, reference compound] gave an inhibition at 10 µM ([2]; 10 μM (positive control), MeI-Ab cells) of 41.1%.

Reference: patent publication US9265707B2, “Cosmetic composition comprising coumestrol or a bean extract containing coumestrol for skin care” (AMOREPACIFIC CORPORATION, priority 2010, dated 2016)
